Source: US20250367343A1, “CLINICAL DRESSING LOADED WITH COFFEE EXTRACT” (KING SAUD UNIVERSITY, priority 2024, published 2025)

What follows are molecules tested on methicillin-resistant Staphylococcus aureus (ATCC 43300) (assay: Standard antibiotic sensitivity test using the Vitek-2 system). Settings: strain ATCC 43300.
Format: cell-based

`CC1(C)S[C@@H]2[C@H](NC(=O)[C@H](N)c3ccccc3)C(=O)N2[C@H]1C(=O)O` [ampicillin] was tested. Which “antibiotic sensitivity of the MRSA strain” value (shortened to “antibiotic sensitivity”) did it give?
Its value is “resistant”.

`CO[C@@]1(NC(=O)Cc2cccs2)C(=O)N2C(C(=O)O)=C(COC(N)=O)CS[C@@H]21` [cefoxitin] was tested. Which “antibiotic sensitivity” value did it give?
Its value is “resistant”.

How did the “antibiotic sensitivity” value turn out when `Cc1onc(-c2ccccc2)c1C(=O)N[C@@H]1C(=O)N2[C@@H]1SC(C)(C)[C@@H]2C(=O)O` [oxacillin] was run?
Its value is “resistant”.

For `CC1(C)S[C@@H]2[C@H](NC(=O)Cc3ccccc3)C(=O)N2[C@H]1C(=O)O` [penicillin G], which “antibiotic sensitivity” value is on record?
Its value is “resistant”.

With amoxicillin-alavulanate as the molecule, how does the “antibiotic sensitivity” value read?
The value was “resistant”.
